Data on seven molecules can be found in patent publication US20210369675A1, “ANTIMICROBIAL DRUG METHODS OF USE & THERAPEUTIC COMPOSITIONS” (priority 2017, published 2021).

“Also recorded” adds a separate entry of the source.

The conditions of data set [1]: cited from earlier work; for elimination half-life (T1/2): after a single administration of rac-ornidazole in a formulation; for AUC0-∞: after a single administration.
Data set [2] relates to Brucella melitensis. Conditions: cited from earlier work.
Data set [3] relates to Burkholderia pseudomallei. Conditions: cited from earlier work.
Data set [4] relates to Burkholderia pseudomallei. The data set is classed as cell-based.
The conditions of data set [5]: current 300 mg capsule formulation, per product label; cited from earlier work.

As to `Cc1ncc([N+](=O)[O-])n1C[C@H](O)CCl` [(S)-ornidazole], in data set [1], the “elimination half-life (T1/2)” value was “similar” and the “AUC0-∞” value was “similar”. In the case of trimethoprim-sulfamethoxazole, the “effectiveness of conventional antibiotics against B. melitensis” value (shortened to “effectiveness … against B. melitensis”) in data set [2] is listed as “not effective”. For the same molecule, the “effectiveness of conventional antibiotics against B. pseudomallei” value (shortened to “effectiveness … against B. pseudomallei”) in data set [3] is recorded as “not effective”. On to `O=C(N[C@H](CO)[C@H](O)c1ccc([N+](=O)[O-])cc1)C(Cl)Cl` [chloramphenicol], for which, in data set [2], the “effectiveness … against B. melitensis” value is listed as “not effective”. The “effectiveness … against B. pseudomallei” value in data set [3] was “not effective”. Turning to `Cc1ncc([N+](=O)[O-])n1CC(O)CCl` (racemic) [(rac)-ornidazole, 1-chloro-3-(2-methyl-5-nitro-1H-imidazol-1-yl)propan-2-ol], in data set [4], the “inhibition of B. pseudomallei grown under anaerobic conditions” value was “inhibition; also recorded: effectively inhibited”. Take `C[C@H](CCC(=O)O)[C@H]1CC[C@H]2[C@@H]3[C@@H](O)C[C@@H]4C[C@H](O)CC[C@]4(C)[C@H]3CC[C@]12C` [Ursodiol, ursodeoxycholic acid]: in data set [5], the “fraction of drug absorbed in the small intestines (small bowel)” value is 90% and the “fraction of drug reaching the colon” value is “less than 10%”. Take `Cc1ncc([N+](=O)[O-])n1C[C@@H](O)CCl` [(R)-ornidazole]: in data set [1], the “elimination half-life (T1/2)” value is listed as “similar” and the “AUC0-∞” value is recorded as “similar”. For the molecule `CC(C)(O/N=C(\C(=O)N[C@@H]1C(=O)N2C(C(=O)[O-])=C(C[n+]3ccccc3)CS[C@H]12)c1csc(N)n1)C(=O)O` [ceftazidime], the “effectiveness … against B. melitensis” value in data set [2] is recorded as “not effective”. The “effectiveness … against B. pseudomallei” value in data set [3] was “not effective”.
